Test system: E. coli AG100
Assay: Time-kill kinetics (CFU)
Assay type: cell-based, Escherichia coli
Conditions: AG100
Method: A drug-free control was included in the assay to monitor the normal growth of the strain. Cultures were sampled for CFU determination after 0, 1, 2, 3, 4, 5, 6, and 24 h of incubation at 37 °C with shaking. For CFU determination, 10-fold serial dilutions were made in a saline solution and 20 µl of each solution was placed onto the surface of a Mueller–Hinton agar plate. The colonies were counted after the incubation of the plates at 37 °C for 24 h. The limit of detection of the assay was 17 CFU/ml. Each assay was repeated at least twice.

For `CCCOc1ccc(-c2cc(OCCN3CCNCC3)c3ccccc3n2)cc1` [PQQ4R, 4-(2-(piperazin-1-yl)ethoxy)-2-(4-propoxyphenyl) quinolone], the “CFU count - absolute values” (4xMIC, T2 (2 h)) was 0, the “CFU count Log10” value (4xMIC, T2 (2 h)) was 0 and the “CFU count Mean” value (4xMIC, T2 (2 h)) was 0.0E+00. The “CFU count - Strain dilution” value (4xMIC, T3 (3 h)) was 0, the “CFU count - absolute values” (4xMIC, T3 (3 h)) was 0 and the “CFU count Log10” value (4xMIC, T3 (3 h)) was 0. The “CFU count Mean” value (4xMIC, T3 (3 h)) was 0.0E+00, the “CFU count - Strain dilution” value (4xMIC, T4 (4 h)) was 0 and the “CFU count - absolute values” (4xMIC, T4 (4 h)) was 0. The “CFU count Log10” value (4xMIC, T4 (4 h)) was 0, the “CFU count Mean” value (4xMIC, T4 (4 h)) was 0.0E+00 and the “CFU count - Strain dilution” value (4xMIC, T5 (5 h)) was 0. The “CFU count - absolute values” (4xMIC, T5 (5 h)) was 0, the “CFU count Log10” value (4xMIC, T5 (5 h)) was 0 and the “CFU count Mean” value (4xMIC, T5 (5 h)) was 0.0E+00. For the same compound, the “CFU count - Strain dilution” value (4xMIC, T6 (6 h)) was 0, the “CFU count - absolute values” (4xMIC, T6 (6 h)) was 0 and the “CFU count Log10” value (4xMIC, T6 (6 h)) was 0. For the same compound, the “CFU count Mean” value (4xMIC, T6 (6 h)) was 0.0E+00, the “CFU count - Strain dilution” value (4xMIC, T24 (24 h)) was 0 and the “CFU count - absolute values” (4xMIC, T24 (24 h)) was 0. For the same compound, the “CFU count Log10” value (4xMIC, T24 (24 h)) was 0, the “CFU count Mean” value (4xMIC, T24 (24 h)) was 0.0E+00 and the “CFU count - Strain dilution” value (8xMIC, T1 (1 h)) was 0. The “CFU count - absolute values” (8xMIC, T1 (1 h)) was 0, the “CFU count Log10” value (8xMIC, T1 (1 h)) was 0 and the “CFU count Mean” value (8xMIC, T1 (1 h)) was 0.0E+00. The “CFU count - Strain dilution” value (8xMIC, T2 (2 h)) was 0, the “CFU count - absolute values” (8xMIC, T2 (2 h)) was 0 and the “CFU count Log10” value (8xMIC, T2 (2 h)) was 0. For the same compound, the “CFU count Mean” value (8xMIC, T2 (2 h)) was 0.0E+00, the “CFU count - Strain dilution” value (8xMIC, T3 (3 h)) was 0 and the “CFU count - absolute values” (8xMIC, T3 (3 h)) was 0. The “CFU count Log10” value (8xMIC, T3 (3 h)) was 0, the “CFU count Mean” value (8xMIC, T3 (3 h)) was 0.0E+00 and the “CFU count - Strain dilution” value (8xMIC, T4 (4 h)) was 0. For the same compound, the “CFU count - absolute values” (8xMIC, T4 (4 h)) was 0, the “CFU count Log10” value (8xMIC, T4 (4 h)) was 0 and the “CFU count Mean” value (8xMIC, T4 (4 h)) was 0.0E+00. For the same compound, the “CFU count - Strain dilution” value (8xMIC, T5 (5 h)) was 0, the “CFU count - absolute values” (8xMIC, T5 (5 h)) was 0 and the “CFU count Log10” value (8xMIC, T5 (5 h)) was 0. The “CFU count Mean” value (8xMIC, T5 (5 h)) was 0.0E+00, the “CFU count - Strain dilution” value (8xMIC, T6 (6 h)) was 0 and the “CFU count - absolute values” (8xMIC, T6 (6 h)) was 0. For the same compound, the “CFU count Log10” value (8xMIC, T6 (6 h)) was 0, the “CFU count Mean” value (8xMIC, T6 (6 h)) was 0.0E+00 and the “CFU count - Strain dilution” value (8xMIC, T24 (24 h)) was 0. The “CFU count - absolute values” (8xMIC, T24 (24 h)) was 0, the “CFU count Log10” value (8xMIC, T24 (24 h)) was 0 and the “CFU count Mean” value (8xMIC, T24 (24 h)) was 0.0E+00. For the same compound, the “CFU count Log10” value (MIC, T1 (1 h)) was 3.007, the “CFU count Mean” value (MIC, T1 (1 h)) was 1.0E+03 and the “CFU count Log10” value (MIC, T2 (2 h)) was 2.336. The “CFU count Mean” value (MIC, T2 (2 h)) was 2.2E+02, the “CFU count Log10” value (MIC, T3 (3 h)) was 1.222 and the “CFU count Mean” value (MIC, T3 (3 h)) was 1.7E+01. The “CFU count - Strain dilution” value (MIC, T4 (4 h)) was 0, the “CFU count - absolute values” (MIC, T4 (4 h)) was 0 and the “CFU count Log10” value (MIC, T4 (4 h)) was 0. The “CFU count Mean” value (MIC, T4 (4 h)) was 0.0E+00, the “CFU count - Strain dilution” value (MIC, T5 (5 h)) was 0 and the “CFU count - absolute values” (MIC, T5 (5 h)) was 0. For the same compound, the “CFU count Log10” value (MIC, T5 (5 h)) was 0, the “CFU count Mean” value (MIC, T5 (5 h)) was 0.0E+00 and the “CFU count - Strain dilution” value (MIC, T6 (6 h)) was 0. The “CFU count - absolute values” (MIC, T6 (6 h)) was 0, the “CFU count Log10” value (MIC, T6 (6 h)) was 0 and the “CFU count Mean” value (MIC, T6 (6 h)) was 0.0E+00. The “CFU count - Strain dilution” value (MIC, T24 (24 h)) was 0, the “CFU count - absolute values” (MIC, T24 (24 h)) was 0 and the “CFU count Log10” value (MIC, T24 (24 h)) was 0. The “CFU count Mean” value (MIC, T24 (24 h)) was 0.0E+00 and the “reduction in bacterial viability” value (half MIC) was “approx. 1 log”.
